Laboratory results taken from patent publication US6506746B2, “Method for treating cognitive dysfunction” (Eli Lilly and Company, priority 1997, dated 2003).

What was measured:
[1] = system: muscarinic cholinergic receptor; conditions: results of pharmacological studies
[2] = system: elderly patients with cognitive dysfunction; assay: double-blind multicenter clinical trial in elderly patients with cognitive dysfunction; type: in vivo, human; conditions: 237 elderly patients (>=65 years), versus placebo; BEHAVE-AD, BPRS and CGI rating scales
Experimental: Changes in behavioral manifestations were measured using the BEHAVE-AD, BPRS, and CGI rating scales, which are known and available to the skilled artisan.

[3] = detection of radiolabelled compound in saliva; type: in vivo
Experimental: For example, in the treatment of adult humans, dosages of from about 0.25 to 50 mg, preferably from 1 to 30 mg, and most preferably 1 to 20 mg per day may be used. A once a day dosage is normally sufficient, although divided doses may be administered. For treatment of cognitive dysfunction, a dose range of from 1 to 30 mg, preferably 1 to 20 mg per day is suitable.

5-HT1C receptor = molecular target: T1, 5-HT1C receptor (Homo sapiens, UniProt P28335); assay: 5-HT1C receptor activity
T1 sequence (P28335 33-458): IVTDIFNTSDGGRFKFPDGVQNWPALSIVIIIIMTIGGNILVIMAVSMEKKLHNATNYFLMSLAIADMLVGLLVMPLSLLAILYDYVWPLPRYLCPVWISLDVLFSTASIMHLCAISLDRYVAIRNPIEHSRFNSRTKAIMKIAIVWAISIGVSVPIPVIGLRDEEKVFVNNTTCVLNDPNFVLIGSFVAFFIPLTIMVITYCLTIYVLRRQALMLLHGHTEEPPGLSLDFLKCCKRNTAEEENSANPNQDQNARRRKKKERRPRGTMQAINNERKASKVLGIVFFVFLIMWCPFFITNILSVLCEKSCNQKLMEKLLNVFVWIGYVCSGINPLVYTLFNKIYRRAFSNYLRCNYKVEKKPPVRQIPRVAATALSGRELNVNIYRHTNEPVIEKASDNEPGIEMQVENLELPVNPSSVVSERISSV

Compound | muscarinic cholinergic receptor activity [1] | changes in behavioral manifestations [2] | detection in saliva [3] | activity at the 5-HT1C receptor (5-HT1C receptor)
Cc1cc2c(s1)Nc1ccccc1N=C2N1CCN(C)CC1 [2-methyl-4-(4-methyl-1-piperazinyl)-10H-thieno[2,3-b][1,5]benzodiazepine] | has muscarinic cholinergic receptor activity | can be useful for the treatment of behavioral manifestations of cognitive dysfunction | can be detected in the saliva | –
Cc1cc2c(s1)Nc1ccccc1N=C2N1CCN(C)CC1 [anhydrous Form I compound, 2-methyl-4-(4-methyl-1-piperazinyl)-10H-thieno[2,3-b][1,5]benzodiazepine] | – | – | – | active
